# Data published in patent US20110091473A1, “NOVEL ANTIBODY THERAPIES” (GENMAB A/S, priority 2007, published 2011).
# Experiment: Cholesterol blood level of hypercholesterolemic patients treated with atorvastatin
# Type: in vivo, human
# Conditions: day 3 vs day 0, single dose 80 mg, five patients
# Protocol: Further, the influence of cholesterol depletion in freshly isolated B cells of hypercholesterolemic patients treated with atorvastatin was studied. A small exploratory clinical trial was performed in which hypercholesterolemic patients (n=5) were treated with a single dose of 80 mg atorvastatin (taken in the evening) in order to reduce their cholesterol blood level and determine the effect on CD20 mAb binding on isolated B cells using flow cytometry. Approval of the study was obtained from the ethics review board of the Warsaw University Medical Center. Informed consent was provided according to the Declaration of Helsinki. […]
# The cholesterol blood level was measured using automated dry chemistry system (Vitroz 250 System Chemistry (Ortho-Clinical Diagnostics, Johnson&Johnson, Piscataway, N.J.). A starting cholesterol blood level of […] was required for patients to enroll in the clinical trial. At time of recruitment, patient I.D.#4 presented with a cholesterol blood concentration […], and as such was considered hypercholesterolemic. At time of recruitment the blood cholesterol level of patient I.D.#5 turned out to be below this cut off value, and thus it can be argued whether this patient should be considered hypercholesterolemic. […] Cholesterol blood levels were subsequently measured on day 0 (pretreatment) and day 3 after treatment. […]
smiles,measurement,value
CC(C)c1c(C(=O)Nc2ccccc2)c(-c2ccccc2)c(-c2ccc(F)cc2)n1CC[C@@H](O)C[C@@H](O)CC(=O)O [atorvastatin],reduction of average cholesterol blood concentration,17%
